Measurements from patent US10702607B2, “Abuse-deterrent pharmaceutical compositions” (priority 2016, dated 2020).

Tests used:
[1] = tested on: laccase; assay: Laccase mediator system (LMS) with oxycodone: HPLC-MS/TOF measurement; settings: mediator 2 mM
[2] = tested on: laccase; assay: Laccase mediator system (LMS) with oxycodone: oxygen concentration measurement; type: biochemical; settings: mediator 2 mM, 10 units laccase ml^-1, 1000 mgL^-1 oxycodone
Method: During the reaction oxygen acts as electron acceptor and is reduced to water by laccases while the mediators are oxidized. The concentration of oxygen was measured as described above. Oxygen is consumed until the mediator is fully oxidized. […] The second step of the reaction is initiated by addition of the target substrate, which is consequently oxidized by the mediators.
In the present experiments the final reaction mixtures contained 0.2 to 6 mM mediator, 1-10 units of laccase per ml and 100-3000 mg L^−1 opioid.
The different mediators were used at concentrations of 2 mM with 10 units laccase ml^−1 and 1000 mgL^−1 oxycodone.

[3] = target: T1, pepsin (Sus scrofa, UniProt P00791); assay: Pepsin digestion assay in simulated gastric fluid (SGF) with SDS-PAGE analysis; type: in vitro ADME; settings: 37° C.
T1 construct: purchased Sigma-Aldrich (US) P7000
Method: SGF contains 0.084 M HCl, 0.035 M NaCl, 4000 U of pepsin per reaction mixture and has a pH level of 1.2 according to the United States Pharmacopeia (1995). A ratio of 10000 Units of pepsin activity to 1 mg of test protein was used throughout the assay, which is based on an evaluation of the average activity of pepsin recommended in the United States Pharmacopeia (24th edition, 2000) with some modifications. Pepsin (ref. # P7000) was purchased from Sigma-Aldrich (US). All proteins that were used were dissolved in 50 mM Tris-HCl (pH 9.5) at a concentration of 5 mg mL^−1. The reaction mixture contained 1.52 mL of SGF preheated to 37° C. before the addition of 0.08 mL of protein solution (Thomas et al., 2004). The mixture was placed into a thermomixer at 37° C. and was shaken at 400 rpm. For denaturating SDS-polyacrylamide gel electrophoresis (SDS-PAGE) analysis samples of 160 μl were removed at 0 minutes, 0.5 minutes, and 15 minutes after initiation.
SDS-PAGE was performed to analyze and visually inspect stained protein bands whether the protein band is still intact or fragmented after the digestion assay. […]
Each 160 μl of the digestion samples was quenched by […] of 200 mM NaHCO3 as neutralization step and 56 μl 4× Laemmli (Laemmli 1970) buffer for electrophoresis. Samples were immediately heated up to 99° C. for 10 minutes and analyzed directly or stored at −20° C. […]

T1 sequence (P00791 60-385): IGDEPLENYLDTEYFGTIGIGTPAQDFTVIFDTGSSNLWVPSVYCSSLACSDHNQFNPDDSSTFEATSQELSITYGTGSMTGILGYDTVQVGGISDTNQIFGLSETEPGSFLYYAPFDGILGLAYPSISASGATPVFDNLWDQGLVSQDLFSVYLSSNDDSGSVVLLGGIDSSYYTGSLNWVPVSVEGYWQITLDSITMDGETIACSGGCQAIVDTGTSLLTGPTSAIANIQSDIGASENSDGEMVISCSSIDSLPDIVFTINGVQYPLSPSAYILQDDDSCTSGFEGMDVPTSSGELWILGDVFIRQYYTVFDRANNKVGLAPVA

Compound	effect of mediator on oxycodone (MS-TOF analysis) [1]	oxygen concentration after the addition of oxycodone (oxidation of oxycodone) [2]	proteolytic degradation ([3]; SGF pH 1.2, pepsin 10000 Units per mg test protein, samples at 0, 0.5, 15 minutes, SDS-PAGE)	protein band on SDS-PAGE after pepsin digestion ([3]; SGF pH 1.2, pepsin)
O=C(O)c1cc(O)c(O)c(O)c1 [gallic acid]	no apparent effect	no apparent effect	–	–
CCOc1cc(C=O)ccc1O [ethylvanillin]	–	drop in oxygen concentration	–	–
HRP: horseradish peroxidase (EC 1.11.1.7)	–	–	very susceptible to proteolytic degradation	vanished within seconds
COc1cc(C(=O)O)cc(OC)c1O [syringic acid]	–	drop in oxygen concentration	–	–
COc1cc(C=O)ccc1O [vanillin]	–	drop in oxygen concentration	–	–
